Measured values as given in the NIST ThermoML archive (doi:10.1016/j.fluid.2018.10.006).

Conditions: Fluid (supercritical or subcritical phases), Coaxial cylinder method

CCCCCC [hexane]
thermal conductivity [W/m/K]
Conditions	509.85 K	510.36 K
245 kPa	–	0.0379
1000 kPa	–	0.03854
2245 kPa	–	0.04183
2715 kPa	–	0.04665
2965 kPa	0.05466	–
2970 kPa	0.05502	–
2975 kPa	0.05557	–
2980 kPa	0.05557	–
2985 kPa	0.05595	–
2990 kPa	0.05595	–
2995 kPa	0.05651	–
3000 kPa	0.0569	–
3005 kPa	0.05749	–
3010 kPa	0.05788	–
3015 kPa	0.05829	–
3020 kPa	0.05869	–
3025 kPa	0.05975	–
3030 kPa	0.05975	–
3035 kPa	0.05975	–
3040 kPa	0.06085	–
3045 kPa	0.0613	–
3050 kPa	0.0618	–
3055 kPa	0.06256	–
3060 kPa	0.06305	–
3065 kPa	0.06429	–
3070 kPa	0.06507	–
3080 kPa	0.06696	–
3085 kPa	0.06809	–
3090 kPa	0.06955	–
3095 kPa	0.07139	–
3100 kPa	0.07333	–
3105 kPa	0.07573	–
3110 kPa	0.07753	0.06796
3112 kPa	–	0.06824
3114 kPa	–	0.06881
3115 kPa	0.08101	–
3116 kPa	–	0.06939
3118 kPa	–	0.07027
3120 kPa	0.08569	0.07087
3122 kPa	–	0.07148
3124 kPa	–	0.07242
3125 kPa	0.08932	–
3126 kPa	–	0.07338
3128 kPa	–	0.07403
3130 kPa	0.09098	0.0747
3132 kPa	–	0.07538
3133 kPa	–	0.07607
3134 kPa	–	0.07624
3135 kPa	0.09203	–
3137 kPa	–	0.0784
3138 kPa	–	0.07915
3139 kPa	–	0.07991
3140 kPa	0.08826	0.08056
3141 kPa	–	0.08119
3142 kPa	–	0.08199
3143 kPa	–	0.08268
3144 kPa	–	0.0833
3145 kPa	0.08512	0.08393
3146 kPa	–	0.08457
3147 kPa	–	0.08501
3148 kPa	–	0.08552
3150 kPa	0.0829	0.08631
3151 kPa	–	0.08656
3152 kPa	–	0.08673
3153 kPa	–	0.08695
3154 kPa	–	0.08709
3155 kPa	0.08149	0.087
3156 kPa	–	0.08691
3157 kPa	–	0.08682
3158 kPa	–	0.08656
3159 kPa	–	0.08634
3160 kPa	0.07984	0.08604
3161 kPa	–	0.08582
3162 kPa	–	0.08548
3163 kPa	–	0.08518
3164 kPa	–	0.08476
3166 kPa	–	0.08393
3168 kPa	–	0.0832
3170 kPa	0.07755	0.08248
3172 kPa	–	0.08173
3174 kPa	–	0.08088
3176 kPa	–	0.08019
3178 kPa	–	0.07941
3180 kPa	0.07646	0.07883
3182 kPa	–	0.07826
3184 kPa	–	0.07767
3186 kPa	–	0.07716
3188 kPa	–	0.07654
3190 kPa	0.07505	0.076
3192 kPa	–	0.07563
3194 kPa	–	0.07525
3196 kPa	–	0.07489
3198 kPa	–	0.07452
3200 kPa	0.07436	0.07416
3202 kPa	–	0.0738
3204 kPa	–	0.07362
3206 kPa	–	0.07337
3208 kPa	–	0.07309
3210 kPa	0.07368	0.07292
3212 kPa	–	0.07274
3214 kPa	–	0.0724
3216 kPa	–	0.0724
3218 kPa	–	0.07206
3220 kPa	0.07319	0.07206
3222 kPa	–	0.07189
3225 kPa	–	0.07175
3228 kPa	–	0.07155
3230 kPa	0.07264	–
3240 kPa	0.07251	–
3250 kPa	0.07211	–
3260 kPa	0.07181	–
3270 kPa	0.07177	–
3280 kPa	0.07145	–
3290 kPa	0.07134	–
3300 kPa	0.07091	–
3310 kPa	0.07096	–
3320 kPa	0.07054	–
3330 kPa	0.07035	–
3340 kPa	0.06992	–
3390 kPa	0.06989	–
3400 kPa	0.06989	–
3450 kPa	0.06947	–
3500 kPa	0.06961	–
3600 kPa	0.06975	–
3800 kPa	0.07031	–
4000 kPa	0.07061	–
4200 kPa	0.07105	–
4400 kPa	0.07134	–
4600 kPa	0.07179	–
4800 kPa	0.07215	–
5000 kPa	0.07254	–
5200 kPa	0.07285	–
5400 kPa	0.07315	–
5600 kPa	0.07355	–
5800 kPa	0.07393	–
6000 kPa	0.07421	–
6200 kPa	0.07453	–
6400 kPa	0.07484	–
6600 kPa	0.07514	–
6800 kPa	0.07543	–
7000 kPa	0.0757	–
7200 kPa	0.07596	–
7400 kPa	0.07619	–
7600 kPa	0.07646	–
7800 kPa	0.07673	–
8000 kPa	0.07679	–
8200 kPa	0.07703	–
8500 kPa	0.07741	–
9000 kPa	0.07802	–
9500 kPa	0.07856	–
10000 kPa	0.0791	–
